Test results: ChEMBL document CHEMBL4842386, “Discovery of Reldesemtiv, a Fast Skeletal Muscle Troponin Activator for the Treatment of Impaired Muscle Function” (J Med Chem, 2021)

Key:
[1] = system: Psoas muscle; test: Increase in psoas muscle force in rabbit skinned single fiber preparation at a calcium concentration that produces a force increase that is 25% of the maximum response in a control preparation by skinned fast skeletal muscle fiber assay; assay type: functional; conditions: Oryctolagus cuniculus
[2] = system: Psoas muscle; test: Activation of fast twitch skeletal muscle in rabbit psoas muscle myofibrils by measuring increase in myofibril ATPase activity at 25% calcium concentration; assay type: functional; conditions: Oryctolagus cuniculus
[3] = Metabolic stability in human liver microsomes assessed as intrinsic clearance measured after 90 mins by HPLC/MS/MS analysis; assay type: ADME, Microsome; conditions: read-out: CLH
[4] = target: T1, Nuclear receptor subfamily 1 group I member 2 (Homo sapiens, UniProt O75469); test: Transactivation of human PXR transfected in DPX2 cells assessed as CYP3A4 induction at 10 uM by luciferase reporter gene assay; assay type: ADME, cell-based; conditions: dpx2, 10 µM
T1 sequence (O75469 whole entry): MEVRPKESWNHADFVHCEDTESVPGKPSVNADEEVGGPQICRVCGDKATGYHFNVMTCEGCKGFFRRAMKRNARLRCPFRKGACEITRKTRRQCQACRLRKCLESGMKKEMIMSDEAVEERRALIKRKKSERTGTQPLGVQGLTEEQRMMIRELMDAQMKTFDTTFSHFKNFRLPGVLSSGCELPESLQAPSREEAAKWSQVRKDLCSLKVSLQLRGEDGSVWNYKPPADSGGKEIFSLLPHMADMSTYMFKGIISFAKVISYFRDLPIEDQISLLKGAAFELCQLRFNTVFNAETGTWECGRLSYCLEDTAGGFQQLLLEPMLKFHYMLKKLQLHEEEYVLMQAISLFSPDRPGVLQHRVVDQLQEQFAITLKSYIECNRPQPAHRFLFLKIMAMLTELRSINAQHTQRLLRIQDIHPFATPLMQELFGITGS

[5] = target: hERG (KCNH2) (Homo sapiens, UniProt Q12809); test: Displacement of [3H]astemizole from human ERG expressed in HEK293 cells at 100 uM relative to control; assay type: cell-based; conditions: HEK293 cells that express hERG, probe [3H]astemizole
Sequence of hERG (KCNH2) (Q12809 whole entry): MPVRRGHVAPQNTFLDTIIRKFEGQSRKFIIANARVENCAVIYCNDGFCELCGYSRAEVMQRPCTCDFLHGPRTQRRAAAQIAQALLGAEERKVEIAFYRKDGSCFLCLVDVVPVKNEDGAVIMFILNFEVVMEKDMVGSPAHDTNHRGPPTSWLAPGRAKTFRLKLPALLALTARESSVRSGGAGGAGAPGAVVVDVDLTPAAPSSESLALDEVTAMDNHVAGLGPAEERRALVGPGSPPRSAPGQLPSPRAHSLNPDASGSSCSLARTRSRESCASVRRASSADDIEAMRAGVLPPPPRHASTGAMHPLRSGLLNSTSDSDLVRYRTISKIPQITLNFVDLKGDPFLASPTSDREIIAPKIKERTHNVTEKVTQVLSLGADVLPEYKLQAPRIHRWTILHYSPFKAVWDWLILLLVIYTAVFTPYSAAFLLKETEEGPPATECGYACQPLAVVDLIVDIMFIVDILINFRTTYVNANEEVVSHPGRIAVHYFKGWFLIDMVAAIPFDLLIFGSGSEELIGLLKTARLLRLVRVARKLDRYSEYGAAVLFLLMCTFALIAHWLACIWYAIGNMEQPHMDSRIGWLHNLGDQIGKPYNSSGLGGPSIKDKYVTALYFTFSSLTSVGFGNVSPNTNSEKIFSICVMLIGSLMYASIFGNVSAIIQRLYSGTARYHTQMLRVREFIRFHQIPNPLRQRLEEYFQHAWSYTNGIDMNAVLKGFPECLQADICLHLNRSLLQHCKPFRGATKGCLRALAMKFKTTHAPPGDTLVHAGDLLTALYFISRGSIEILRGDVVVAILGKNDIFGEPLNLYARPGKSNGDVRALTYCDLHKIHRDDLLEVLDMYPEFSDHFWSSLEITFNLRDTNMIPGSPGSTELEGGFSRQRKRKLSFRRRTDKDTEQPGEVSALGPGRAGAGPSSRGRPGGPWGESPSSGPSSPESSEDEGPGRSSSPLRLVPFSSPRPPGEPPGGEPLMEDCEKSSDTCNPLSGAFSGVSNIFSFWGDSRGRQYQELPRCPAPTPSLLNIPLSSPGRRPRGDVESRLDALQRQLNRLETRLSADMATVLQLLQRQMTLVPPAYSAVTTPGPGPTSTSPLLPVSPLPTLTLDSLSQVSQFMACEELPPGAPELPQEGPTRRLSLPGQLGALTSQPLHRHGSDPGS

[6] = Intrinsic clearance in human hepatocytes; assay type: ADME, cell-based, Hepatocyte; conditions: read-out: CLH
[7] = system: Extensor digitorum longus; test: Increase in muscle tension in rat extensor digitorum longus muscle rat model assessed as free plasma concentration to increase muscle tension at subtetanic nerve stimulation rate of 30 Hz; assay type: functional, tissue-based
[8] = Plasma protein binding in male rat assessed as unbound fraction; assay type: ADME, cell-free
[9] = Drug distribution in Sprague-Dawley rat brain to blood ratio at 100 mg/kg, po by HPLC analysis; assay type: ADME, organism-based
[10] = Drug distribution in Sprague-Dawley rat Soleus muscle to blood ratio at 100 mg/kg, po by HPLC analysis; assay type: ADME, organism-based
[11] = Drug distribution in Sprague-Dawley rat extensor digitorum longus to blood ratio at 100 mg/kg, po by HPLC analysis; assay type: ADME, organism-based
[12] = Drug distribution in Sprague-Dawley rat plasma to blood ratio at 100 mg/kg, po by HPLC analysis; assay type: ADME, organism-based; conditions: in vivo
[13] = Efflux ratio of apparent permeability in human Caco-2 cells; assay type: ADME, cell-based
[14] = Clearance in male Sprague-Dawley rat at 3 mg/kg, po administered as single dose measured up to 24 hrs by HPLC analysis; assay type: ADME, organism-based; conditions: in vivo
[15] = Volume of distribution at steady state in male Sprague-Dawley rat at 3 mg/kg, po administered as single dose measured up to 24 hrs by HPLC analysis; assay type: ADME, organism-based; conditions: in vivo
[16] = Metabolic stability in male rat liver microsomes assessed as intrinsic clearance measured after 90 mins by HPLC/MS/MS analysis; assay type: ADME, Microsome; conditions: read-out: CLH
[17] = Intrinsic clearance in male rat hepatocytes; assay type: ADME, cell-based, Hepatocyte; conditions: read-out: CLH
[18] = Clearance in mouse at 3 mg/kg, po administered as single dose measured up to 24 hrs by HPLC analysis; assay type: ADME, organism-based; conditions: in vivo
[19] = Volume of distribution at steady state in mouse at 3 mg/kg, po administered as single dose measured up to 24 hrs by HPLC analysis; assay type: ADME, organism-based; conditions: in vivo
[20] = Oral bioavailability in mouse at 3 mg/kg administered as single dose measured up to 24 hrs by HPLC analysis; assay type: ADME, organism-based; conditions: in vivo
[21] = Clearance in female Sprague-Dawley rat at 3 mg/kg, po administered as single dose measured up to 24 hrs by HPLC analysis; assay type: ADME, organism-based; conditions: in vivo
[22] = Volume of distribution at steady state in female Sprague-Dawley rat at 3 mg/kg, po administered as single dose measured up to 24 hrs by HPLC analysis; assay type: ADME, organism-based; conditions: in vivo
[23] = Oral bioavailability in female Sprague-Dawley rat at 3 mg/kg administered as single dose measured up to 24 hrs by HPLC analysis; assay type: ADME, organism-based; conditions: in vivo
[24] = Metabolic stability in female rat liver microsomes assessed as intrinsic clearance measured after 90 mins by HPLC/MS/MS analysis; assay type: ADME, Microsome; conditions: read-out: CLH
[25] = Intrinsic clearance in female rat hepatocytes; assay type: ADME, cell-based, Hepatocyte; conditions: read-out: CLH
[26] = Plasma protein binding in female rat assessed as unbound fraction; assay type: ADME, cell-free
[27] = Clearance in Beagle dog at 3 mg/kg, po administered as single dose measured up to 24 hrs by HPLC analysis; assay type: ADME, organism-based, Canis lupus familiaris; conditions: in vivo
[28] = Volume of distribution at steady state in Beagle dog at 3 mg/kg, po administered as single dose measured up to 24 hrs by HPLC analysis; assay type: ADME, organism-based, Canis lupus familiaris; conditions: in vivo
[29] = Oral bioavailability in Beagle dog at 3 mg/kg administered as single dose measured up to 24 hrs by HPLC analysis; assay type: ADME, organism-based, Canis lupus familiaris; conditions: in vivo
[30] = Plasma protein binding in dog assessed as unbound fraction; assay type: ADME, cell-free, Canis lupus familiaris
[31] = Metabolic stability in dog liver microsomes assessed as intrinsic clearance measured after 90 mins by HPLC/MS/MS analysis; assay type: ADME, Canis lupus familiaris, Microsome; conditions: read-out: CLH
[32] = Intrinsic clearance in dog hepatocytes; assay type: ADME, cell-based, Canis lupus familiaris, Hepatocyte; conditions: read-out: CLH
[33] = Clearance in cynomolgus monkey at 3 mg/kg, po administered as single dose measured up to 24 hrs by HPLC analysis; assay type: ADME, organism-based, Macaca fascicularis; conditions: in vivo
[34] = Volume of distribution at steady state in cynomolgus monkey at 3 mg/kg, po administered as single dose measured up to 24 hrs by HPLC analysis; assay type: ADME, organism-based, Macaca fascicularis; conditions: in vivo
[35] = Oral bioavailability in cynomolgus monkey at 3 mg/kg administered as single dose measured up to 24 hrs by HPLC analysis; assay type: ADME, organism-based, Macaca fascicularis; conditions: in vivo
[36] = Plasma protein binding in monkey assessed as unbound fraction; assay type: ADME, cell-free, Macaca mulatta; conditions: rhesus monkey
[37] = Metabolic stability in monkey liver microsomes assessed as intrinsic clearance measured after 90 mins by HPLC/MS/MS analysis; assay type: ADME, Macaca mulatta, Microsome; conditions: rhesus monkey, read-out: CLH
[38] = Intrinsic clearance in monkey hepatocytes; assay type: ADME, cell-based, Macaca mulatta, Hepatocyte; conditions: rhesus monkey, read-out: CLH
[39] = Plasma protein binding in human assessed as unbound fraction; assay type: ADME, cell-free
[40] = Oral bioavailability in male Sprague-Dawley rat at 3 mg/kg administered as single dose measured up to 24 hrs by HPLC analysis; assay type: ADME, organism-based; conditions: in vivo

## NC(=O)c1ccn(-c2cnc(NC[C@]3(c4ncccc4F)C[C@H](F)C3)nc2)c1 [RELDESEMTIV]
[1]
  EC30: 800 nM
[2]
  EC40: 600 nM
[3]
  CLint scaled: < 14 mL/min/kg
[4]
  Activity: 18%
[5]
  inhibition at 100 µM: 33%
[6]
  CLint scaled: < 14 mL/min/kg
[7]
  EC50: 38000 nM
[8]
  fraction unbound: 0.5
[9]
  Kp: 0.063
[10]
  Kp: 0.77
[11]
  Kp: 0.85
[12]
  Ratio: 1
[13]
  efflux ratio: 3.1
[14]
  CL/F: 74 mL/min/kg
[15]
  Vdss: 2.6 L/kg
[16]
  CLint scaled: 15 mL/min/kg
[17]
  CLint scaled: 56 mL/min/kg
[18]
  CL/F: 86 mL/min/kg
[19]
  Vdss: 3.3 L/kg
[20]
  bioavailability: 47%
[21]
  CL/F: 24 mL/min/kg
[22]
  Vdss: 1.3 L/kg
[23]
  bioavailability: 45%
[24]
  CLint scaled: 15 mL/min/kg
[25]
  CLint scaled: 217 mL/min/kg
[26]
  fraction unbound: 0.5
[27]
  CL/F: 22 mL/min/kg
[28]
  Vdss: 1.9 L/kg
[29]
  bioavailability: 25%
[30]
  fraction unbound: 0.5
[31]
  CLint scaled: 11 mL/min/kg
[32]
  CLint scaled: 37 mL/min/kg
[33]
  CL/F: 13 mL/min/kg
[34]
  Vdss: 1.3 L/kg
[35]
  bioavailability: 26%
[36]
  fraction unbound: 0.49
[37]
  CLint scaled: 18 mL/min/kg
[38]
  CLint scaled: 23 mL/min/kg
[39]
  fraction unbound: 0.49

## NC(=O)c1cccc(-c2cnc(NC[C@]3(c4ncccc4F)C[C@H](F)C3)nc2)c1
[1]
  EC30: 800 nM
[2]
  EC40: 300 nM
[3]
  CLint scaled: < 14 mL/min/kg
[4]
  Activity: 68%
[5]
  inhibition at 100 µM: 46%
[8]
  fraction unbound: 0.15
[9]
  Kp: 0.15
[10]
  Kp: 1.16
[11]
  Kp: 1.2
[12]
  Ratio: 1.85
[13]
  efflux ratio: 1.8
[14]
  CL/F: 59 mL/min/kg
[15]
  Vdss: 1.7 L/kg
[40]
  bioavailability: 21%
[16]
  CLint scaled: 38 mL/min/kg
[17]
  CLint scaled: 38 mL/min/kg
